Our source for the IC50 and Activity values is ChEMBL document CHEMBL4715722, “Discovery and preliminary structure-activity relationship studies on tecomaquinone I and tectol as novel farnesyltransferase and plasmodial inhibitors” (Bioorg Med Chem, 2016).

A short description of series [1]: Inhibition of bovine brain FTase using 3H-farnesyl diphosphate as substrate incubated for 30 mins by beta-plate counting method. Further details: species or system Bos taurus; call rule not given here.
Series [2] can be described thus: Inhibition of partially purified human FTase using dan-syl-GCVLS peptide as substrate measured for 15 mins by fluorescence based assay.
Series [3] can be described thus: Inhibition of Trypanosoma brucei FTase.
Series [4] is described as follows: Cytotoxicity against human tumor cell line. In kind it is cell-based.
Another series relates to Plasmodium falciparum. In words: Antiplasmodial activity against chloroquine-resistant Plasmodium falciparum FcB1 infected in erythrocyte incubated for 48 hrs by [3H]-hypoxanthine incorporation assay. It counts as functional, organism-based.
Series [5] can be described thus: Inhibition of recombinant human FTase.

SMILES strings stand for the structures. Some results are limits rather than exact numbers.

In general, IC50 refers to the concentration needed to halve the response being measured. `CC(=O)OC(CCCC12OC(C(=O)O)C(O)(C(=O)O)C(C(=O)O)(O1)[C@H](OC(=O)CC/C=C/C(C)CCCc1ccccc1)[C@H]2O)C(C)Cc1ccccc1` (stereo partly specified) yielded an IC50 in series [1] of 150 nM.
On to `CC(C)=CCC/C(C)=C/CCc1ccc2c(c1)C(=O)c1ccccc1C2=O`, for which the IC50 is 1400 nM in series [2], 1700 nM in series [3] (read-out: IC50) and greater than 28000 nM in the series on Plasmodium falciparum. Moreover, the Activity result in series [4] is reported as “Non-Toxic”.
For the compound `CC(C)=CCCC1(C)C=Cc2c(-c3c4c(c5ccccc5c3O)OC(C)(CCC=C(C)C)C=C4)c(O)c3ccccc3c2O1` (stereo unspecified), the IC50 in series [2] stood at 4400 nM; in series [3] (read-out: IC50), 6100 nM; in the series with Plasmodium falciparum, 10600 nM. Moreover, the Activity entry in series [4] is recorded as “Non-Toxic”.
`CCCCCCCCCC(=O)O[C@@H]1[C@@H](O)C2(CCCC(OC(C)=O)C(C)C/C=C/c3ccccc3)OC(C(=O)O)C(O)(C(=O)O)C1(C(=O)O)O2` (stereo partly specified) yielded an IC50 in series [1] of 100 nM.
As to `CC(C)=CCC/C(C)=C/C1Oc2c(c3c(c4ccccc24)OC(C)(CCC=C(C)C)C=C3)C2=C1C(=O)c1ccccc1C2=O` (stereo unspecified), the IC50 in series [2] was 1100 nM; in series [3] (read-out: IC50), 2700 nM; with Plasmodium falciparum it was greater than 17000 nM. The Activity entry in series [4] is “Non-Toxic”.
On to `CC(C)=CCC/C(C)=C/CCC1(C)C=Cc2c3c(c4ccccc4c2O1)OC(C)(CC/C=C(\C)CCC=C(C)C)C=C3` (stereo unspecified), for which the figures for the IC50 (in series [2]; in series [3] (read-out: IC50); in the series on Plasmodium falciparum) were 1700 nM, 2600 nM and greater than 18000 nM, respectively. For the same compound, in series [4], the Activity result is on record as “Non-Toxic”.
The like results for `CC(C)=CCCC1(C)C=Cc2c3c(c4ccccc4c2O1)OC(C)(CCC=C(C)C)C=C3` (stereo unspecified) were, in that order, 4400 nM, 7900 nM, greater than 23000 nM and “Non-Toxic”.
`CC(C)=CCC/C(C)=C/CCC1(C)C=Cc2c(-c3c4c(c5ccccc5c3O)OC(C)(CC/C=C(\C)CCC=C(C)C)C=C4)c(O)c3ccccc3c2O1` (stereo unspecified): the IC50 in series [2] worked out at 1800 nM; in series [3] (read-out: IC50) it was 8700 nM; in the series on Plasmodium falciparum, 7050 nM. For the same compound, the Activity entry in series [4] is “Non-Toxic”.
Turning to `CC(C)=CCC/C(C)=C/CC/C(C)=C/C1Oc2c(c3c(c4ccccc24)OC(C)(CC/C=C(\C)CCC=C(C)C)C=C3)C2=C1C(=O)c1ccccc1C2=O` (stereo unspecified), the IC50 in series [2] is 9980 nM; in series [3] it was “Not Active”; in the series on Plasmodium falciparum it was greater than 14000 nM. Besides, in series [4], the Activity result is recorded as “Non-Toxic”.
As for `CCC(CC(C)C(=O)O)C(=O)CC/C(C)=C/C(C)C/C(C)=C/C(C)C(O)C(C)CCC(CCCC/C=C/C(C)CCC(C)OC(=O)CC(CC(=O)O)C(=O)O)OC(=O)CC(CC(=O)O)C(=O)O` (stereo unspecified), the IC50 in series [5] turned out to be 50 nM.
As to `CCCCCCCC(=O)O[C@@H]1[C@@H](O)C2(CCCC(OC(C)=O)C(C)C/C=C/c3ccccc3)OC(C(=O)O)C(O)(C(=O)O)C1(C(=O)O)O2` (stereo partly specified), half-maximal inhibition in series [1] (IC50) was put at 100 nM.
On to `CC(C)=CCCc1ccc2c(c1)C(=O)c1ccccc1C2=O`, for which the IC50 is 1500 nM in series [2], 1400 nM in series [3] (read-out: IC50) and greater than 34000 nM in the series on Plasmodium falciparum. Besides, the Activity entry in series [4] is given as “Non-Toxic”.
Take `O=C(O)C/C(C(=O)O)=C(/CCCCCCCCCCCCCCCCOS(=O)(=O)O)C(=O)O`: in series [5], the IC50 was 14 nM.
Turning to `CCC(CC(C)C(=O)O)C(=O)CC/C1=C/C(C)C/C(C)=C/C(C)C(O)C(C)CCC(CCCC/C=C/C(C)CCC(C)OC(=O)CC(CC(=O)O)C(=O)O)OC(=O)CC(C(=O)O)CC(=O)OC1` (stereo unspecified) [ACTINOPLANIC ACID A], in series [5], the IC50 is 230 nM.
For `CC(C)=CC1Oc2c(c3c(c4ccccc24)OC(C)(C)C=C3)C2=C1C(=O)c1ccccc1C2=O` (stereo unspecified) [TECOMAQUINONE], the IC50 in series [2] is 65 nM; in series [3] (read-out: IC50), 112 nM; in the series on Plasmodium falciparum, greater than 22000 nM. The Activity entry in series [4] is listed as “Non-Toxic”.
The like results for `CC1(C)C=Cc2c(-c3c4c(c5ccccc5c3O)OC(C)(C)C=C4)c(O)c3ccccc3c2O1` [tectol] were, in that order, 2090 nM, 1730 nM, 3440 nM and “Non-Toxic”.
